Experimental data: patent publication US20030158093A1, “Bifunctional glycopeptide antibiotics and combinatorial libararies thereof” (priority 2001, published 2003)
Values after ≈ are worked out from the molar mass of the structure shown. Blank lines part the entries; values can stand above or below the compound they belong to.

Legend:
Assay type in all cases: cell-based
[1] = tested on: E. faecium resistant (VanA) (CL4931); assay: MIC, standard microdilution assay, E. faecium resistant (VanA); details: strain CL4931; for MIC: Enterococcus faecium, 22 h
Experimental: (§1) Briefly, compound 7 and compound 10 were synthesized by utilizing procedures described, for example, in Thompson, C. et al., J. Am. Chem. Soc., 1999, 121, 1237. Compound 8 was prepared from tri-O-acetyl-D-glucal by a one-step procedure described by Chen, Z. Ph.D. Dissertation, Princeton University, Princeton, N.J. 2001.

[2] = tested on: E. faecalis sensitive (29212); assay: MIC, standard microdilution assay, E. faecalis sensitive; details: strain 29212; for MIC: Enterococcus faecalis, 22 h
Experimental: as §1

[3] = tested on: E. faecium sensitive (49624); assay: MIC, standard microdilution assay, E. faecium sensitive; details: strain 49624; for MIC: Enterococcus faecium, 22 h
Experimental: as §1

[4] = tested on: E. faecalis resistant (VanB) (CL4877); assay: MIC, standard microdilution assay, E. faecalis resistant (VanB); details: strain CL4877; for MIC: Enterococcus faecalis, 22 h
Experimental: as §1

S. aureus (29213) = assay: MIC, standard microdilution assay, S. aureus; details: strain 29213; for MIC: Staphylococcus aureus, 22 h
Experimental: as §1

transglycosylation = assay: Inhibition of transglycosylation in a permeabilized E. coli model

Compound: CCCCCCCCCCCCOP(=O)(O)OC1OC(C(N)=O)C(OC)C(NC(=O)Nc2ccc(Cl)c(C(F)(F)F)c2)C1OC1OC(CO)C(O)C(O)C1NC(=O)c1cccc(C(F)(F)F)c1 (stereo not drawn) [Compound 4]
- MIC ([1]; Table 2): 6.2 µg/mL (≈ 6.14 µM)
- MIC ([2]; Table 2): 6.2 µg/mL (≈ 6.14 µM)
- MIC ([3]; Table 2): 6.2 µg/mL (≈ 6.14 µM)
- MIC ([4]; Table 2): 3.1 µg/mL (≈ 3.07 µM)
- MIC (S. aureus (29213); Table 2): 6.2 µg/mL (≈ 6.14 µM)
- inhibition of transglycosylation (transglycosylation): inhibits transglycosylation

- MIC ([1]; Table 2): 250 µg/mL (≈ 266 µM)
- MIC ([2]; Table 2): 125 µg/mL (≈ 133 µM)
- MIC ([3]; Table 2): 250 µg/mL (≈ 266 µM)
- MIC ([4]; Table 2): 250 µg/mL (≈ 266 µM)
- MIC (S. aureus (29213); Table 2): 125 µg/mL (≈ 133 µM)
Compound: COc1cccc(OC)c1OCCOC1OC(C(N)=O)C(OC)C(NC(=O)Nc2ccc(Cl)c(C(F)(F)F)c2)C1OC1OC(CO)C(O)C(O)C1NC(=O)c1cccc(C(F)(F)F)c1 (stereo not drawn) [Compound 6]

Compound: CN[C@H](CC(C)C)C(=O)N[C@H]1C(=O)N[C@@H](CC(N)=O)C(=O)N[C@H]2C(=O)N[C@H]3C(=O)N[C@H](C(=O)N[C@H](C(=O)O)c4cc(O)cc(O)c4-c4cc3ccc4O)[C@H](O)c3ccc(c(Cl)c3)Oc3cc2cc(c3O)Oc2ccc(cc2Cl)[C@H]1O [Vancomycin Aglycon, Vancomycin aglycone]
- 22-hr MIC E. faecium resistant (VanA) ([1]; Table 2): >500 µg/mL
- 22-hr MIC E. faecalis sensitive ([2]; Table 2): 8 µg/mL
- 22-hr MIC E. faecium sensitive ([3]; Table 2): 2 µg/mL
- 22-hr MIC E. faecalis resistant (VanB) ([4]; Table 2): >500 µg/mL
- 22-hr MIC S. aureus (S. aureus (29213); Table 2): 2 µg/mL

Compound: vancomycin [Compound 1a]
- MIC E. faecium resistant (VanA) ([1]; Table 1, 35° C., 22h): >500 µg/mL
- MIC E. faecalis sensitive ([2]; Table 1, 35° C., 22h): 16 µg/mL
- MIC E. faecium sensitive ([3]; Table 1, 35° C., 22h): 2 µg/mL
- MIC E. faecalis resistant (VanB) ([4]; Table 1, 35° C., 22h): >500 µg/mL
- MIC S. aureus (S. aureus (29213); Table 1, 35° C., 22h): 4 µg/mL
